Measurements: US8927280B2, “Compositions and methods for promoting the generation of definitive endoderm” (President and Fellows of Harvard College, priority 2009, dated 2015)
Entries after “also recorded” stand apart in the source; their conditions may differ.

Experiments:
[1] = test system: human ES cells (HUES 4 and 8); assay: Sox17 endoderm induction in human ES cells; assay type: cell-based; conditions: for dose dependence of Sox17 expression: HUES 4 and 8; for percent of cells expressing Sox17: HUES cells, 4 days, IDE1 100 nM, IDE2 200 nM
Description: Human embryonic stem cell lines were cultured essentially as described {Cowan, 2004 #6}. Briefly, HUES4, HUES8 and HUES9 cells are routinely cultured on irradiated CF-1 MEF feeder cells in KnockOut DMEM (Gibco) supplemented with 10% KnockOut Serum Replacement (Gibco), 10% human plasma (Invitrogen), 2 mM L-glutamine (L-Glu, Gibco), 1.1 mM 2-mercaptoethanol (Gibco), 1 mM nonessential amino acids (Gibco), 1× penicillin/streptomycin (PS, Gibco) and 10 ng/ml bFGF (Invitrogen). Cells are split at the ratio of 1:10-1:12 every 4-5 days by using 1 mg/ml collagenase type IV. To induce endoderm formation, HUES cells was cultured on MEF feeder cells till 80-90% confluent, then treated with 100 ng/ml Activin A in advanced RPMI (Gibco) supplemented with 1×L-Glu and 0.2% FBS (Gibco), or with combination of 25 ng/ml Wnt3a (R&D systems)+100 ng/ml Activin A (R&D systems) or were exposed to compounds in the same media. At days 4 and 6 of culture cells were analysed for endodermal marker expression, Sox17.
(§1) Cells were fixed in 4% paraformaldehyde (Sigma) in PBS for 20 min at 4° C. followed by a wash with PBS. Cells were blocked with 10% donkey serum (Jackson Immunoresearch) in PBS/0.1% Triton X and incubated with primary antibodies overnight at 4° C. Secondary antibodies were incubated for 1 h at room temperature. The following antibodies and dilutions were used: goat anti-SOX17, (1:500 R&D systems); rabbit anti-PDX1 (1:200, Chemicon), rabbit anti-FoxA2 (1:500; Upstate), rabbit anti-Dab2 (1:200, Santa Cruz), rabbit anti-SPARC (1:200, Santa Cruz,), mouse anti-AFP (1:100, Sigma), anti-Gata6 (1:50, Santa Cruz Biotech), goat anti-HNF6 (1:200, Santa Cruz Biotech), rabbit anti-RFP/DsRed (1:300, MBL), rabbit anti-GFP (1:200, Molecular Probes). Secondary antibodies were: rhodamine Red-X-conjugated donkey anti-goat antibody, 1:200 (JIRL), Alexa-488-conjugated goat anti-mouse and Alexa-594-conjugated goat anti-rabbit antibodies (1:300, Molecular Probes). Nuclei were visualized by Hoechst 33342 (1:1000, Molecular Probes). Images were taken using an Olympus IX70 Microscope. For quantification images were analyzed for the frequency of SOX17+, FoxA2+ or Pdx1+ cells using Metamorph image analysis software (Molecular Devices) and at least 6 images per well were collected. Data were confirmed in four independent experiments.

mouse ES cells = assay: Extra-embryonic endoderm markers and morphology of induced Sox17+ cells (immunostaining); assay type: cell-based; conditions: for morphology of induced Sox17+ cells: immunostaining with α-Sox17 antibody; for expression of extra-embryonic endoderm (EE) markers GATA4, SPARC, AFP, Dab2 in induced Sox17+ cells: mouse ES cells, immunostaining
Description: as §1
During evaluation of primary hit compounds, the inventors observed that small molecules induced Sox17+ cells with two distinct morphologies. One class, including IDE1 and IDE2, induced clustered populations of Sox17+ cells, whereas other compounds led to the formation of a dispersed population of Sox17+ cells. […] Sox17 is expressed in definitive endoderm, but also in extra-embryonic endoderm, and in other germ layer derivatives at later stages of development including vascular endothelium (Kanai-Azuma et al., 2002; Matsui et al., 2006). Since the positive identification of definitive endoderm is hindered by the lack of unique markers that are expressed exclusively there, and not present in other types of endoderm, the inventors performed a negative selection and tested for markers of extra-embryonic endoderm. It was found, that the vast majority (>95%) of the dispersed Sox17+ cells (class II) also expressed extra-embryonic endoderm markers including Gata4 (Morrisey et al., 1996), SPARC (Mason et al., 1986), AFP (Dziadek, 1979) and Dab2 (Yang et al., 2002) (Suppl. FIG. 2B).

Compound	dose dependence of Sox17 expression [1]	percent of cells expressing Sox17 [1] [%]	morphology of induced Sox17+ cells (mouse ES cells)	expression of extra-embryonic endoderm (EE) markers GATA4, SPARC, AFP, Dab2 in induced Sox17+ cells (mouse ES cells)
O=C(O)CCCCCC(=O)NN=C1CCCC1 [IDE2]	dose-depended manner	57±6.7	compact, epithelial sheet	only rarely detected; also recorded: no or a negligible number of cells positive for extra-embryonic markers
O=C(O)CCCCCC(=O)N/N=C/c1ccccc1C(=O)O [IDE1]	dose-depended manner	62±8.1	compact, epithelial sheet	marginal expression of EE markers; also recorded: no or a negligible number of cells positive for extra-embryonic markers
